Where “and” joins values, the source holds several entries; their conditions need not be identical. Identical values can stand only once. Like-named read-outs stand apart in the source and are kept apart here.
Test system: Early Stage PD patients
Conditions: for Primary 1: rate of change in UPDRS, weeks 12-36, 1 mg/day - placebo / Secondary Endpoint: change in total UPDRS from baseline to final visit in phase I, 1 mg/day - placebo: rasagiline 1 mg/day minus placebo; for Primary 1: rate of change in UPDRS, weeks 12-36, 2 mg/day - placebo / Secondary Endpoint: change in total UPDRS from baseline to final visit in phase I, 2 mg/day - placebo: rasagiline 2 mg/day minus placebo
Experimental: 1 mg/day rasagiline during Phase I and Phase II; • Group 2. 2 mg/day rasagiline during Phase I and Phase II; • Group 3. placebo during Phase I followed by 1 mg/day rasagiline during Phase II; and • Group 4. placebo during Phase I followed by 2 mg/day rasagiline during Phase II.
Thus, ‘early-start’ patients receive 72 weeks of treatment with rasagiline (1 or 2 mg once daily) and ‘delayed-start’ patients receive 36 weeks of placebo followed by 36 weeks of rasagiline (1 or 2 mg once daily). […] If subjects in either treatment group required additional anti-parkinsonian medication during the placebo-controlled stage of the trial, they could proceed directly to Phase II. Once in Phase II, no additional anti-PD therapy is permitted. If the patient requires additional medication in this stage they are discontinued from the study.
1 mg/day rasagiline during Phase I and Phase II (1 mg early start) • 2. 2 mg/day rasagiline during Phase I and Phase II (2 mg early start) • 3. placebo during Phase I followed by 1 mg/day rasagiline during Phase II (1 mg delayed start) • 4. placebo during Phase I followed by 2 mg/day rasagiline during Phase II (2 mg delayed start)
If, at any stage during the placebo-controlled phase the investigator determines that a subject needs additional anti-PD therapy, the subject will proceed to Phase II of the study. The investigator, aided by a questionnaire, will give careful consideration to the issue of a subject's need for additional anti-PD therapy. Scheduled in-clinic visits will be conducted at baseline and at weeks 4, 12, 24 and 36. Therefore, altogether there will be 5 scheduled visits during this phase. Unscheduled visits may be conducted at any time to assess a subject's need for additional anti-PD therapy, for safety reasons or for any other reason.
Thus, subjects who receive 1 mg rasagiline during Phase I will continue to receive 1 mg during Phase II, subjects who receive 2 mg rasagiline during Phase I will continue to receive 2 mg during Phase II, and subjects who receive placebo during Phase I will receive either 1 mg or 2 mg rasagiline during Phase II. The study blind will be maintained. No additional anti-PD therapy will be permitted during this phase. This applies to both the subjects who enter Phase II after completing the full 36-week duration of Phase I and to subjects who are switched from Phase I to Phase II because of a need of additional anti-PD therapy. If, the investigator determines that a subject needs additional anti-PD therapy during Phase II, the subject will be prematurely withdrawn from the study. The investigator, aided by a questionnaire, will give careful consideration to the issue of a subject's need for additional anti-PD therapy. Scheduled in-clinic visits will be conducted every 6 weeks. Therefore, altogether there will be 6 visits during this phase—at weeks 42, 48, 54, 60, 66 and 72. Unscheduled visits may be conducted at any time to assess a subject's need for additional anti-PD therapy, for safety reasons or for any other reason.

[1] = Baseline UPDRS > 25.5 (Upper Quartile)
[2] = Baseline UPDRS ≦ 25.5 (Lower 3 Quartiles)
[3] = rasagiline 1 mg/day, Baseline UPDRS > 25.5 (Upper Quartile)
[4] = rasagiline 1 mg/day, Baseline UPDRS ≦ 25.5 (Lower 3 Quartiles)
[5] = rasagiline 1 mg/day, all subjects
[6] = rasagiline 1 mg/day, all subjects, listed as Rasagiline
[7] = rasagiline 2 mg/day delayed-start, Baseline UPDRS > 25.5 (Upper Quartile)
[8] = rasagiline 2 mg/day delayed-start, Baseline UPDRS ≦ 25.5 (Lower 3 Quartiles)
[9] = rasagiline 2 mg/day delayed-start, all subjects
[10] = rasagiline 2 mg/day early-start minus delayed-start, Baseline UPDRS > 25.5 (Upper Quartile)
[11] = rasagiline 2 mg/day early-start minus delayed-start, Baseline UPDRS ≦ 25.5 (Lower 3 Quartiles)
[12] = rasagiline 2 mg/day early-start, Baseline UPDRS > 25.5 (Upper Quartile)
[13] = rasagiline 2 mg/day early-start, Baseline UPDRS ≦ 25.5 (Lower 3 Quartiles)
[14] = rasagiline 2 mg/day early-start, all subjects
[15] = rasagiline 2 mg/day, Baseline UPDRS > 25.5 (Upper Quartile)
[16] = rasagiline 2 mg/day, Baseline UPDRS ≦ 25.5 (Lower 3 Quartiles)
[17] = rasagiline 2 mg/day, all subjects

C#CCN[C@@H]1CCc2ccccc21 [rasagiline]
Primary 1: rate of change in UPDRS, weeks 12-36, 1 mg/day - placebo [1]: −0.11 UPDRS units/wk
Secondary Endpoint: change in total UPDRS from baseline to final visit in phase I, 1 mg/day - placebo [1]: −6.43
Primary 1: rate of change in UPDRS, weeks 12-36, 1 mg/day - placebo [2]: −0.03 UPDRS units/wk
Secondary Endpoint: change in total UPDRS from baseline to final visit in phase I, 1 mg/day - placebo [2]: −2.34
Primary 1: rate of change in UPDRS, weeks 12-36, 1 mg/day - placebo (all subjects): −0.05±0.02 UPDRS units/wk and −0.05 UPDRS units/wk
Secondary Endpoint: change in total UPDRS from baseline to final visit in phase I, 1 mg/day - placebo (all subjects): −3.01±0.43 and −3.01
Primary 1: rate of change in UPDRS, weeks 12-36 [3]: 0.14 UPDRS units/wk
Secondary Endpoint: change in total UPDRS from baseline to final visit in phase I [3]: 0.27
Primary 1: rate of change in UPDRS, weeks 12-36 [4]: 0.08 UPDRS units/wk
Secondary Endpoint: change in total UPDRS from baseline to final visit in phase I [4]: 1.40
Change from baseline to week 72 in Total-UPDRS, early- vs delayed-start, Estimate (rasagiline 1 mg/day, Completers (n = 409), MMRM (week 48-72)): −1.6
Change from baseline to week 72 in Total-UPDRS, early- vs delayed-start, Estimate (rasagiline 1 mg/day, ITT cohort (observed data), MMRM (weeks 12-72)): −1.7
Change from baseline to week 72 in Total-UPDRS, early- vs delayed-start, Estimate (rasagiline 1 mg/day, Imputed - primary study cohort, Imputation by means of the delayed-start group (week 48-72)): −1.2
Change from baseline to week 72 in Total-UPDRS, early- vs delayed-start, Estimate (rasagiline 1 mg/day, Imputed - primary study cohort, Multiple imputation (week 48-72)): −1.8
Change from baseline to week 72 in Total-UPDRS, early- vs delayed-start, Estimate (rasagiline 1 mg/day, Per protocol (n = 405), MMRM (week 48-72)): −1.6
Change from baseline to week 72 in Total-UPDRS, early- vs delayed-start, Estimate (rasagiline 1 mg/day, Primary study cohort (n = 489), MMRM (week 48-72)): −1.7
Change from baseline to week 72 in Total-UPDRS, early- vs delayed-start, Estimate (rasagiline 1 mg/day, Primary study cohort, ANCOVA with LOCF): −1.7
Change from baseline to week 72 in Total-UPDRS, early- vs delayed-start, Estimate (rasagiline 1 mg/day, Primary study cohort, MMRM, average change from baseline across weeks 48-72): −1.6
Primary 1: rate of change in UPDRS, weeks 12-36 [5]: 0.09 UPDRS units/wk
Secondary Endpoint: change in total UPDRS from baseline to final visit in phase I [5]: 1.26
outcome of the primary analysis (three hierarchal endpoints) [5]: met all three primary analysis endpoints
Primary 1: rate of change in UPDRS, weeks 12-36 [6]: 0.09±0.02 UPDRS units/wk
outcome of the primary analysis (three hierarchal endpoints) [6]: met all endpoints
Primary 2: estimated change in total UPDRS from baseline to week 72 [7]: 5.09
Primary 3: rate of change in UPDRS, weeks 48-72 [7]: 0.137 UPDRS units/wk
Primary 2: estimated change in total UPDRS from baseline to week 72 [8]: 2.60
Primary 3: rate if change in UPDRS, weeks 48-72 [8]: 0.05 UPDRS units/wk
Primary 2: estimated change in total UPDRS from baseline to week 72 [9]: 3.11
Primary 3: rate of change in UPDRS, weeks 48-72 [9]: 0.065 UPDRS units/wk
Primary 2: estimated change in total UPDRS from baseline to week 72 (rasagiline 2 mg/day delayed-start, all subjects, listed as Rasagiline): 3.11±0.5
Primary 2: estimated change in total UPDRS from baseline to week 72, early-start-delayed-start [10]: −3.63±1.72 and −3.63
Primary 3: rate of change in UPDRS, weeks 48-72, early-start-delayed start [10]: −0.03 UPDRS units/wk
Primary 2: estimated change in total UPDRS from baseline to week 72, early-start-delayed-start [11]: 1.10
Primary 3: rate if change in UPDRS, weeks 48-72, early-start-delayed start [11]: 0.05 UPDRS units/wk
Primary 2: estimated change in total UPDRS from baseline to week 72, early-start-delayed-start (rasagiline 2 mg/day early-start minus delayed-start, all subjects): 0.36±0.68 and 0.36
Primary 3: rate of change in UPDRS, weeks 48-72, early-start-delayed start (rasagiline 2 mg/day early-start minus delayed-start, all subjects, non-inferiority margin 0.15): 0.03 UPDRS units/wk
Primary 2: estimated change in total UPDRS from baseline to week 72 [12]: 1.46
Primary 3: rate of change in UPDRS, weeks 48-72 [12]: 0.106 UPDRS units/wk
Primary 2: estimated change in total UPDRS from baseline to week 72 [13]: 3.70
Primary 3: rate if change in UPDRS, weeks 48-72 [13]: 0.09 UPDRS units/wk
Primary 2: estimated change in total UPDRS from baseline to week 72 [14]: 3.47
Primary 3: rate of change in UPDRS, weeks 48-72 [14]: 0.094 UPDRS units/wk
Primary 2: estimated change in total UPDRS from baseline to week 72 (rasagiline 2 mg/day early-start, all subjects, listed as Rasagiline): 3.47±0.5
Primary 1: rate of change in UPDRS, weeks 12-36, 2 mg/day - placebo [1]: −0.20 UPDRS units/wk
Secondary Endpoint: change in total UPDRS from baseline to final visit in phase I, 2 mg/day - placebo [1]: −7.13
Primary 1: rate of change in UPDRS, weeks 12-36, 2 mg/day - placebo [2]: −0.03 UPDRS units/wk
Secondary Endpoint: change in total UPDRS from baseline to final visit in phase I, 2 mg/day - placebo [2]: −2.16
Primary 1: rate of change in UPDRS, weeks 12-36, 2 mg/day - placebo (all subjects): −0.07±0.02 UPDRS units/wk and −0.07 UPDRS units/wk
Secondary Endpoint: change in total UPDRS from baseline to final visit in phase I, 2 mg/day - placebo (all subjects): −3.15±0.43 and −3.15
Primary 1: rate of change in UPDRS, weeks 12-36 [15]: 0.05 UPDRS units/wk
Secondary Endpoint: change in total UPDRS from baseline to final visit in phase I [15]: −0.43
Primary 1: rate of change in UPDRS, weeks 12-36 [16]: 0.07 UPDRS units/wk
Secondary Endpoint: change in total UPDRS from baseline to final visit in phase I [16]: 1.58
Primary 1: rate of change in UPDRS, weeks 12-36 [17]: 0.07 UPDRS units/wk
Secondary Endpoint: change in total UPDRS from baseline to final visit in phase I [17]: 1.11
outcome of the primary analysis (three hierarchal endpoints) [17]: did not meet all three endpoints
outcome of the primary analysis (three hierarchal endpoints) (rasagiline 2 mg/day, all subjects, listed as Rasagiline): did not meet all endpoints

Source: US20140243418A1, “RASAGILINE FOR PARKINSON'S DISEASE MODIFICATION” (Teva Pharmaceutical Industries, Ltd., priority 2008, published 2014)
